Laboratory results from patent US11459323B2, “Monocyclic β-lactam compound for treating bacterial infection” (MEDSHINE DISCOVERY INC., priority 2018, dated 2022).
In brackets after ≈: the same amount, converted by molar mass. Where two headings read alike, the source gives them in different places.

Assays:
Test in all cases: MIC on clinically isolated bacteria
Assay type in all cases: cell-based
[1] = system: Acinetobacter baumannii C357; conditions: Acinetobacter baumannii C357; read-out: Minimum Inhibitory Concentration (MIC)
Excerpt: (§1) Twenty-five strains of clinically isolated Acinetobacter baumannii and twenty-seven strains of Pseudomonas aeruginosa were respectively selected and used to determine the minimum inhibitory concentration (MIC) of the compounds by micro-liquid dilution method according to the Institute of Clinical and Laboratory Standard (CLSI) requirements.

[2] = system: Acinetobacter baumannii C408; conditions: Acinetobacter baumannii C408; read-out: Minimum Inhibitory Concentration (MIC)
Excerpt: as §1

[3] = system: Pseudomonas aeruginosa W19; conditions: read-out: MIC
Excerpt: as §1

[4] = system: Pseudomonas aeruginosa M4; conditions: read-out: MIC
Excerpt: as §1

[5] = system: Acinetobacter baumannii C241; conditions: Acinetobacter baumannii C241; read-out: Minimum Inhibitory Concentration (MIC)
Excerpt: as §1

[6] = system: Acinetobacter baumannii C312; conditions: Acinetobacter baumannii C312; read-out: Minimum Inhibitory Concentration (MIC)
Excerpt: as §1

[7] = system: Pseudomonas aeruginosa W23; conditions: read-out: MIC
Excerpt: as §1

[8] = system: Acinetobacter baumannii C402; conditions: Acinetobacter baumannii C402; read-out: Minimum Inhibitory Concentration (MIC)
Excerpt: as §1

[9] = system: Acinetobacter baumannii C313; conditions: Acinetobacter baumannii C313; read-out: Minimum Inhibitory Concentration (MIC)
Excerpt: as §1

[10] = system: Acinetobacter baumannii C401; conditions: Acinetobacter baumannii C401; read-out: Minimum Inhibitory Concentration (MIC)
Excerpt: as §1

[11] = system: Pseudomonas aeruginosa W6; conditions: read-out: MIC
Excerpt: as §1

[12] = system: Acinetobacter baumannii C427; conditions: Acinetobacter baumannii C427; read-out: Minimum Inhibitory Concentration (MIC)
Excerpt: as §1

[13] = system: Pseudomonas aeruginosa W4; conditions: read-out: MIC
Excerpt: as §1

[14] = system: Acinetobacter baumannii C319; conditions: Acinetobacter baumannii C319; read-out: Minimum Inhibitory Concentration (MIC)
Excerpt: as §1

[15] = system: Pseudomonas aeruginosa W32; conditions: read-out: MIC
Excerpt: as §1

[16] = system: Acinetobacter baumannii C330; conditions: Acinetobacter baumannii C330; read-out: Minimum Inhibitory Concentration (MIC)
Excerpt: as §1

[17] = system: Pseudomonas aeruginosa W13; conditions: read-out: MIC
Excerpt: as §1

[18] = system: Pseudomonas aeruginosa W20; conditions: read-out: MIC
Excerpt: as §1

[19] = system: Acinetobacter baumannii C328; conditions: Acinetobacter baumannii C328; read-out: Minimum Inhibitory Concentration (MIC)
Excerpt: as §1

[20] = system: Pseudomonas aeruginosa C754; conditions: read-out: MIC
Excerpt: as §1

[21] = system: Pseudomonas aeruginosa W9; conditions: read-out: MIC
Excerpt: as §1

[22] = system: Pseudomonas aeruginosa C755; conditions: read-out: MIC
Excerpt: as §1

[23] = system: Acinetobacter baumannii C251; conditions: Acinetobacter baumannii C251; read-out: Minimum Inhibitory Concentration (MIC)
Excerpt: as §1

[24] = system: Acinetobacter baumannii C332; conditions: Acinetobacter baumannii C332; read-out: Minimum Inhibitory Concentration (MIC)
Excerpt: as §1

[25] = system: Pseudomonas aeruginosa W1; conditions: read-out: MIC
Excerpt: as §1

[26] = system: Acinetobacter baumannii C395; conditions: Acinetobacter baumannii C395; read-out: Minimum Inhibitory Concentration (MIC)
Excerpt: as §1

[27] = system: Acinetobacter baumannii C390; conditions: Acinetobacter baumannii C390; read-out: Minimum Inhibitory Concentration (MIC)
Excerpt: as §1

[28] = system: Aeruginosa ATCC27853; conditions: Pseudomonas aeruginosa; Aeruginosa ATCC27853; read-out: MIC
Excerpt: as §1

[29] = system: Pseudomonas aeruginosa C761; conditions: read-out: MIC
Excerpt: as §1

[30] = system: Pseudomonas aeruginosa W47; conditions: read-out: MIC
Excerpt: as §1

[31] = system: Acinetobacter baumannii C315; conditions: Acinetobacter baumannii C315; read-out: Minimum Inhibitory Concentration (MIC)
Excerpt: as §1

[32] = system: Pseudomonas aeruginosa W27; conditions: read-out: MIC
Excerpt: as §1

[33] = system: Pseudomonas aeruginosa M1; conditions: read-out: MIC
Excerpt: as §1

[34] = system: Acinetobacter baumannii C283; conditions: Acinetobacter baumannii C283; read-out: Minimum Inhibitory Concentration (MIC)
Excerpt: as §1

[35] = system: Pseudomonas aeruginosa W28; conditions: read-out: MIC
Excerpt: as §1

[36] = system: Pseudomonas aeruginosa W46; conditions: read-out: MIC
Excerpt: as §1

[37] = system: Pseudomonas aeruginosa C762
Excerpt: as §1

[38] = system: Acinetobacter baumannii C279; conditions: Acinetobacter baumannii C279; read-out: Minimum Inhibitory Concentration (MIC)
Excerpt: as §1

[39] = system: Pseudomonas aeruginosa C763; conditions: read-out: MIC
Excerpt: as §1

[40] = system: Acinetobacter baumannii C181; conditions: Acinetobacter baumannii C181; read-out: Minimum Inhibitory Concentration (MIC)
Excerpt: as §1

[41] = system: Pseudomonas aeruginosa W21; conditions: read-out: MIC
Excerpt: as §1

SMILES: C[C@H]1[C@H](NC(=O)/C(=N\OC(C)(C)C(=O)O)c2csc(N)n2)C(=O)N1S(=O)(=O)O [Aztreonam, reference compound]
- MIC [1]: 32 µg/mL (≈ 73.5 µM)
- MIC [2]: 32 µg/mL (≈ 73.5 µM)
- MIC [3]: 16 µg/mL (≈ 36.7 µM)
- MIC [4]: < 0.25 µg/mL
- MIC [5]: 128 µg/mL (≈ 294 µM)
- MIC [6]: 64 µg/mL (≈ 147 µM)
- MIC [7]: 16 µg/mL (≈ 36.7 µM)
- MIC [8]: 32 µg/mL (≈ 73.5 µM)
- MIC [9]: 64 µg/mL (≈ 147 µM)
- MIC [10]: 32 µg/mL (≈ 73.5 µM)
- MIC [11]: 32 µg/mL (≈ 73.5 µM)
- MIC [12]: 64 µg/mL (≈ 147 µM)
- MIC [13]: 4 µg/mL (≈ 9.19 µM)
- MIC [14]: 64 µg/mL (≈ 147 µM)
- MIC [15]: 32 µg/mL (≈ 73.5 µM)
- MIC [16]: 64 µg/mL (≈ 147 µM)
- MIC [17]: 16 µg/mL (≈ 36.7 µM)
- MIC [18]: 32 µg/mL (≈ 73.5 µM)
- MIC [19]: 64 µg/mL (≈ 147 µM)
- MIC [20]: 4 µg/mL (≈ 9.19 µM)
- MIC [21]: 32 µg/mL (≈ 73.5 µM)
- MIC [22]: 4 µg/mL (≈ 9.19 µM)
- MIC [23]: 32 µg/mL (≈ 73.5 µM)
- MIC [24]: 64 µg/mL (≈ 147 µM)
- MIC [25]: 32 µg/mL (≈ 73.5 µM)
- MIC [26]: 32 µg/mL (≈ 73.5 µM)
- MIC [27]: 64 µg/mL (≈ 147 µM)
- MIC [28]: 2 µg/mL (≈ 4.59 µM)
- MIC [29]: 8 µg/mL (≈ 18.4 µM)
- MIC [30]: 16 µg/mL (≈ 36.7 µM)
- MIC [31]: 64 µg/mL (≈ 147 µM)
- MIC [32]: 32 µg/mL (≈ 73.5 µM)
- MIC [33]: 8 µg/mL (≈ 18.4 µM)
- MIC [34]: 64 µg/mL (≈ 147 µM)
- MIC [35]: 32 µg/mL (≈ 73.5 µM)
- MIC [36]: 16 µg/mL (≈ 36.7 µM)
- MIC [37]: 128 µg/mL (≈ 294 µM)
- MIC [38]: 64 µg/mL (≈ 147 µM)
- MIC [39]: 32 µg/mL (≈ 73.5 µM)
- MIC [40]: 64 µg/mL (≈ 147 µM)
- MIC [41]: 16 µg/mL (≈ 36.7 µM)

SMILES: CC1(C)[C@H](NC(=O)/C(=N\O[C@@H](COc2ccc3c(c2)CN(C(=N)NCCCCN)C3)C(=O)O)c2csc(N)n2)C(=O)N1OS(=O)(=O)O [Compound 36]
- MIC [1]: 2 µg/mL (≈ 2.87 µM)
- MIC [2]: 2 µg/mL (≈ 2.87 µM)
- MIC [3]: 0.25 µg/mL (≈ 0.358 µM)
- MIC [4]: 1 µg/mL (≈ 1.43 µM)
- MIC [5]: 2 µg/mL (≈ 2.87 µM)
- MIC [6]: 2 µg/mL (≈ 2.87 µM)
- MIC [7]: 0.25 µg/mL (≈ 0.358 µM)
- MIC [8]: 2 µg/mL (≈ 2.87 µM)
- MIC [9]: 2 µg/mL (≈ 2.87 µM)
- MIC [10]: 1 µg/mL (≈ 1.43 µM)
- MIC [11]: 0.5 µg/mL (≈ 0.717 µM)
- MIC [12]: 2 µg/mL (≈ 2.87 µM)
- MIC [13]: 1 µg/mL (≈ 1.43 µM)
- MIC [14]: 2 µg/mL (≈ 2.87 µM)
- MIC [15]: 1 µg/mL (≈ 1.43 µM)
- MIC [16]: 2 µg/mL (≈ 2.87 µM)
- MIC [17]: 0.25 µg/mL (≈ 0.358 µM)
- MIC [18]: 0.5 µg/mL (≈ 0.717 µM)
- MIC [19]: 2 µg/mL (≈ 2.87 µM)
- MIC [20]: 0.25 µg/mL (≈ 0.358 µM)
- MIC [21]: 0.5 µg/mL (≈ 0.717 µM)
- MIC [22]: 0.25 µg/mL (≈ 0.358 µM)
- MIC [23]: 16 µg/mL (≈ 22.9 µM)
- MIC [24]: 2 µg/mL (≈ 2.87 µM)
- MIC [25]: 0.5 µg/mL (≈ 0.717 µM)
- MIC [26]: 2 µg/mL (≈ 2.87 µM)
- MIC [27]: 2 µg/mL (≈ 2.87 µM)
- MIC [28]: 0.25 µg/mL (≈ 0.358 µM)
- MIC [29]: 0.25 µg/mL (≈ 0.358 µM)
- MIC [30]: 0.5 µg/mL (≈ 0.717 µM)
- MIC [31]: 2 µg/mL (≈ 2.87 µM)
- MIC [32]: 0.5 µg/mL (≈ 0.717 µM)
- MIC [33]: 0.5 µg/mL (≈ 0.717 µM)
- MIC [34]: 2 µg/mL (≈ 2.87 µM)
- MIC [35]: 4 µg/mL (≈ 5.73 µM)
- MIC [36]: 0.25 µg/mL (≈ 0.358 µM)
- MIC ([37]; read-out: MIC): 8 µg/mL (≈ 11.5 µM)
- MIC [38]: 2 µg/mL (≈ 2.87 µM)
- MIC [39]: 4 µg/mL (≈ 5.73 µM)
- MIC [40]: 2 µg/mL (≈ 2.87 µM)
- MIC [41]: 0.25 µg/mL (≈ 0.358 µM)
